Assay results: US11578079B2, “SUMO inhibitor compounds and uses thereof” (CITY OF HOPE, priority 2018, dated 2023)

How the values were obtained:
SUMO = target: T1, SUMO (Homo sapiens, UniProt Q9UBT2); assay: SUMO activity (Table I, biological activities); type: biochemical; parameters: key: + (less active); ++ (active); +++ (most active)
T1 sequence (Q9UBT2 1-640): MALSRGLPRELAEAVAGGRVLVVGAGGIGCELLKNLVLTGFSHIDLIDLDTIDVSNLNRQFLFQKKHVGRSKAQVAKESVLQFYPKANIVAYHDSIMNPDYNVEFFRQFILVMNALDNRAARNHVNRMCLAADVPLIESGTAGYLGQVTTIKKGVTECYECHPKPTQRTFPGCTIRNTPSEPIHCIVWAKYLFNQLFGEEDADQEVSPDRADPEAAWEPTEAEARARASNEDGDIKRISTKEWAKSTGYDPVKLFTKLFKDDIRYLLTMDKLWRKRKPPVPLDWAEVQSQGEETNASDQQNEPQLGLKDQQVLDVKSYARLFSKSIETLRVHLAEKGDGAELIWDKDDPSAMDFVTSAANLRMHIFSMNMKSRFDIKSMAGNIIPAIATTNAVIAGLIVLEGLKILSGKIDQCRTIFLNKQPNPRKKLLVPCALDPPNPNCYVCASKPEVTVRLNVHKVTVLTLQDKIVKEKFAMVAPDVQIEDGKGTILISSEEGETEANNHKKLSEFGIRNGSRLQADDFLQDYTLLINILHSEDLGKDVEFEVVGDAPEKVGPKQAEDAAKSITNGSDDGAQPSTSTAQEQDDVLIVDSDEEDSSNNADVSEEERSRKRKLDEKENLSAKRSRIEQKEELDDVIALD
T1 sequence (Q9UBE0 1-346 partner): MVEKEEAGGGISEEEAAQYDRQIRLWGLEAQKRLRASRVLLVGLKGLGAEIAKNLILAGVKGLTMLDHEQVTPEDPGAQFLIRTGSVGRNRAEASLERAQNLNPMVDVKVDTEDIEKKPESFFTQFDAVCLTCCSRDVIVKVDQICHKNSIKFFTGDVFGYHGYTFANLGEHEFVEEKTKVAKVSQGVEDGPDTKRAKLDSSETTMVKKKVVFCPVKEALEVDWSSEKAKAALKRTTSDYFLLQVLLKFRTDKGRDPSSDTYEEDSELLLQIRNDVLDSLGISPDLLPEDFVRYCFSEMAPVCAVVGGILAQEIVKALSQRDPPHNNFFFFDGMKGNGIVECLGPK

Atg7 = target: T2, Atg7 (Homo sapiens, UniProt O95352); assay: Atg7 activity (Table I, biological activities); type: biochemical; parameters: key: + (less active); ++ (active); +++ (most active)
T2 sequence (O95352 1-703): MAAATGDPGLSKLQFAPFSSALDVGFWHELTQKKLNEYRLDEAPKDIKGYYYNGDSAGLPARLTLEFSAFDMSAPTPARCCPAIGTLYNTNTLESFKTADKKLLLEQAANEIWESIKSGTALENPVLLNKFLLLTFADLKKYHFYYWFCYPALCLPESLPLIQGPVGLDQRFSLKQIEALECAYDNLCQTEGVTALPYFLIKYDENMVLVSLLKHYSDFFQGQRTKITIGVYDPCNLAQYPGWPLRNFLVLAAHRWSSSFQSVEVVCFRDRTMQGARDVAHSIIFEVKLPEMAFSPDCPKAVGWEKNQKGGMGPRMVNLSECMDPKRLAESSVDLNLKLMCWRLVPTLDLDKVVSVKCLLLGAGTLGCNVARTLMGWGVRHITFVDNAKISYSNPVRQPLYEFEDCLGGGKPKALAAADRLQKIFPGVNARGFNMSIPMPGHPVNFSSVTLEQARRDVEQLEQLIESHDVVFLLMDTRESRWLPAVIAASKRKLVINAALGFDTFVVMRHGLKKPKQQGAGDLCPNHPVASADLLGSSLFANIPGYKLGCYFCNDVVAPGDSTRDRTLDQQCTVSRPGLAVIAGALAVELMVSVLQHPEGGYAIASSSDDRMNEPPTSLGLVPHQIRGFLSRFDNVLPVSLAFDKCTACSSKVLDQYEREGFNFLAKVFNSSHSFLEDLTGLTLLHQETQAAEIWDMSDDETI

c-Myc = c-Myc activity (Table I, biological activities); parameters: key: + (less active); ++ (active); +++ (most active)
Nedd8 = target: T3, Nedd8 (Homo sapiens, UniProt Q8TBC4); assay: Nedd8 activity (Table I, biological activities); type: biochemical; parameters: key: + (less active); ++ (active); +++ (most active)
T3 sequence (Q8TBC4 1-463): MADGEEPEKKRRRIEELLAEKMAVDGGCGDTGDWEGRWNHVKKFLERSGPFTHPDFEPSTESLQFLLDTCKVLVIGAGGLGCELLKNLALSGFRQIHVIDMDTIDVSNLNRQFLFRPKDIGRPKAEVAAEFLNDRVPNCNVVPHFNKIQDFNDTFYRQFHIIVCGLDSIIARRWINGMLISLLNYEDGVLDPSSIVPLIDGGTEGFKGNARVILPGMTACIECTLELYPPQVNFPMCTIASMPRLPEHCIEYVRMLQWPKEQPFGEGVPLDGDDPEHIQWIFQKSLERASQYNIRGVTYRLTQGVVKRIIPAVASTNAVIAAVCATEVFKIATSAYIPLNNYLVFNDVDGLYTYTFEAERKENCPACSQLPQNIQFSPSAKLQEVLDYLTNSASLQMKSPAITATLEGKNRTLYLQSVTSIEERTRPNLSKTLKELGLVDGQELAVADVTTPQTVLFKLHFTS
T3 sequence (Q13564 1-534 partner): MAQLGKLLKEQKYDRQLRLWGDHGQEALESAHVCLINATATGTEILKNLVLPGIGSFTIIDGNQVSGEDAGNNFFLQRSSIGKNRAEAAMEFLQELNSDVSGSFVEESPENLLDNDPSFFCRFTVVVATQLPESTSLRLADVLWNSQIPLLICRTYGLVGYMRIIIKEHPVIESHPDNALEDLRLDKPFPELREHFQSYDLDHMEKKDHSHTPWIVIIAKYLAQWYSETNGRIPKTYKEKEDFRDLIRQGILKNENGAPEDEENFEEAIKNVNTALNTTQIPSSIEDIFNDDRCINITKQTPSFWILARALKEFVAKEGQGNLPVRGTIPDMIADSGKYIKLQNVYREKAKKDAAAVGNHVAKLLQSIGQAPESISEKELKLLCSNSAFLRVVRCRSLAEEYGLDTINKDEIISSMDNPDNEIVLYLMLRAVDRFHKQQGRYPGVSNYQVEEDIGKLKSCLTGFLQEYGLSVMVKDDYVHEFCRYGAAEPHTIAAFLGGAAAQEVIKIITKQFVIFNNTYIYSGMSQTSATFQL

Ubiquitin = target: T4, Ubiquitin (Homo sapiens, UniProt P22314); assay: Ubiquitin activity (Table I, biological activities); type: biochemical; parameters: key: + (less active); ++ (active); +++ (most active)
T4 sequence (P22314 1-1058): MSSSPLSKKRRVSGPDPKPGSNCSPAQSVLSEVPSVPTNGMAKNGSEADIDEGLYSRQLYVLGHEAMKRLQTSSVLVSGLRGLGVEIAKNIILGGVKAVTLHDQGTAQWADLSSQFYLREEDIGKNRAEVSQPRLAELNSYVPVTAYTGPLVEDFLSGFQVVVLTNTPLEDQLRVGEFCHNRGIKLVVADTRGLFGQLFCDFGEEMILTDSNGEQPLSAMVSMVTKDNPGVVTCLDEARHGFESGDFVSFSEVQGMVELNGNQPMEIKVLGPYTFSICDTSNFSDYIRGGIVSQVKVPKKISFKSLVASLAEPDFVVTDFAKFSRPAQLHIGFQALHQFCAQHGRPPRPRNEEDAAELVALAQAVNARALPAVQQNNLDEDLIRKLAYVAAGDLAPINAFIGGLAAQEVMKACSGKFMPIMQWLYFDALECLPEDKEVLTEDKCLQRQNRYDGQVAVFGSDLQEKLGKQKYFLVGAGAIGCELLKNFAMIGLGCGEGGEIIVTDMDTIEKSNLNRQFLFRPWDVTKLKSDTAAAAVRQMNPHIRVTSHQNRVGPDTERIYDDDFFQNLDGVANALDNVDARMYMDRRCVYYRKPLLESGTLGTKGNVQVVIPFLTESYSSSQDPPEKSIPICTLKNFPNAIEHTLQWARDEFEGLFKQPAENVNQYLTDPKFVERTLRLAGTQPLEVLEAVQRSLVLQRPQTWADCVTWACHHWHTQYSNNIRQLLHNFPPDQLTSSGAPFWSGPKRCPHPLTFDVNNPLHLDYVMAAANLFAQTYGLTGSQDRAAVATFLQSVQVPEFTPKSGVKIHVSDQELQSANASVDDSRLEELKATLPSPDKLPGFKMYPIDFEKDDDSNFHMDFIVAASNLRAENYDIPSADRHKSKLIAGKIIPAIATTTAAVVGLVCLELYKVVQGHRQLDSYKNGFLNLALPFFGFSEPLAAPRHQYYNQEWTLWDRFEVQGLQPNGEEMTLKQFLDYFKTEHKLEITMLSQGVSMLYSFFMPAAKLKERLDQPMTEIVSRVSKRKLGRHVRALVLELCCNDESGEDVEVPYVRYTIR

[1] = tested on: cancer stem cell (CSC) populations in patient derived xenograft (PDX) models; assay: Limited dilution assays of cancer stem cell populations in PDX models (FIG. 1); type: cell-based; details: 1 μM to 10 μM
Source text: FIG. 1. Examination of the effect of compounds 582 and 588 to reduce cancer stem cell (CSC) populations in patient derived xenograft (PDX) models using limited dilution assays.

SUMO (SUMO)	Atg7 (Atg7)	Nedd8 (Nedd8)	Ubiquitin (Ubiquitin)	Compound	c-Myc (c-Myc)	inhibition on PDX cancer-initiating-cell (CIC) frequency [1]
++	++			COC(=O)C1=C(C(=O)NCCN2CCCCC2)C2C=CC1(C(Cc1ccccc1)Nc1ccccc1)O2 (stereo not drawn) [Compound 462]	++	
++	++			COC(=O)C1=C(C(=O)NCCN2CCN(C)CC2)C2C=CC1(C(Cc1ccccc1)Nc1ccccc1)O2 (stereo not drawn) [Compound 463]	++	
+		++		Cc1ccc(S(=O)(=O)C2=CC3(C)C=CC2(C(Cc2ccccc2)Nc2ccccc2)O3)cc1 (stereo not drawn) [Compound 531]		
+		++	+	COC(=O)C1=C(C(=O)Nc2ccc(OCCN(C)C)cc2)C2OC1(C(Cc1ccccc1)Oc1ccccc1)C1OC21 (stereo not drawn) [Compound 534]	++	
+++		++	+	COC(=O)C1=C(C(=O)NCCN(C)C)C2C=CC1(C(Cc1ccccc1)Nc1cccc(CO)c1)O2 (stereo not drawn) [Compound 535]	++	
++		++	+	COC(=O)C1=C(C(N)=O)C2C=CC1(C(Cc1ccccc1)Nc1cccc(CO)c1)O2 (stereo not drawn) [Compound 536]		
++		++		COC(=O)C1=C(C(=O)Nc2ccc(OC)cc2)C2C=CC1(C(Cc1ccccc1)Nc1cccc(CO)c1)O2 (stereo not drawn) [Compound 537]	+	
++		++		COC(=O)C1=C(C(N)=O)C2C=CC1(C(Cc1ccccc1)Nc1ccc(F)cc1)O2 (stereo not drawn) [Compound 540]	++	
++		++		COC(=O)C1=C(C(=O)NC2CCN(C)CC2)C2OC1(C(Cc1ccccc1)Oc1ccccc1)C1OC21 (stereo not drawn) [Compound 541]	++	
++			+	COC(=O)C1=C(C(=O)Nc2ccc(CN(C)C)cc2)C2OC1(C(Cc1ccccc1)Oc1ccccc1)C1OC21 (stereo not drawn) [Compound 545]	++	
++				CCOC(=O)C1=C(C(=O)Nc2c(C)cccc2C)C2C=CC1(C(Nc1ccccc1)c1ccc(CN3CCOCC3)cc1)O2 (stereo not drawn) [Compound 582]	++	dose-dependent inhibition on PDX cancer-initiating-cell (CIC) frequency, even at 1 μM
+	++			COC(=O)C1=C(CO)C2C=CC1(C(Cc1ccccc1)Oc1ccccc1)O2 (stereo not drawn) [Compound 584]	++	
++				CCOC(=O)C1=C(C(=O)Nc2c(CC)cccc2CC)C2C=CC1(C(Nc1ccccc1)c1ccc(CN3CCOCC3)cc1)O2 (stereo not drawn) [Compound 588]	++	only showed inhibition on CIC at high dose 10 μM
++	+			COC(=O)C1=C(C(=O)NCCN(C)C)C2(C)C=CC1(C(Cc1ccccc1)Nc1ccccc1)O2 (stereo not drawn) [Compound 619]	+	
+	++			COC(=O)C1=C(CO)C2(C)C=CC1(C(Cc1ccccc1)Oc1ccccc1)O2 (stereo not drawn) [Compound 626]		

Compound	SUMO (SUMO)	Atg7 (Atg7)	Nedd8 (Nedd8)	Ubiquitin (Ubiquitin)	c-Myc (c-Myc)	inhibition on PDX cancer-initiating-cell (CIC) frequency [1]
CCOC(=O)C1=CC2OC1(C(c1ccccc1)N(C(=O)C(F)(F)F)c1ccccc1)c1ccccc12 (stereo not drawn) [Compound 585]	+	+			++	
